Values joined by “and” are separate entries in the source; they are usually repeats but may differ in a detail not shown here. Identical values can stand only once.
System: HEK293 cells
Assay: Endogenous ceramide, HexCer and SM levels in cells treated 24 h, targeted LC-MS/MS
Type: cell-based
Settings: HEK293 cells, 24 h
Experimental: Lipids were then extracted using MTBE/methanol/water as described above.
HEK293 cell culture experiment: Levels of each lipid in P053-treated HEK293 cells were normalised to the mean of the vehicle control group, and each concentration was compared to the control using ANOVA with Dunnett’s post-test. P values were adjusted for multiple comparisons in GraphPad PRISM.
Supplementary Figure 1. Ceramide, SM, and HexCer levels in HEK293 cells treated with
P053. Absolute lipid levels were determined by targeted LC-MS/MS, relative to external
standard curves. Results are mean ± SEM (n = 4) from one of two identical experiments.
Statistically significant results, based on two independent experiments, are as indicated in
Figure 2b-d. Raw data for these figures is provided in Supplementary Data File 1.

Structure (SMILES): C[C@@](N)(CO)CCc1ccc(OCc2ccc(Cl)c(Cl)c2)cc1 [P053, (S)-2-amino-4-(4-(3,4-dichlorobenzyloxy)phenyl)-2-methylbutan-1-ol]
- 16:0 Cer level (P053 100 nM): 93.0789 percentage of the vehicle control group and 87.8624 percentage of the vehicle control group and 90.7567 percentage of the vehicle control group and 99.4946 percentage of the vehicle control group and 119.082 percentage of the vehicle control group and 99.8119 percentage of the vehicle control group and 116.788 percentage of the vehicle control group and 98.8463 percentage of the vehicle control group
- 16:0 HexCer level (P053 100 nM): 72.1291 percentage of the vehicle control group and 81.3101 percentage of the vehicle control group and 75.1757 percentage of the vehicle control group and 88.1626 percentage of the vehicle control group and 92.7296 percentage of the vehicle control group and 94.3662 percentage of the vehicle control group and 88.291 percentage of the vehicle control group and 103.879 percentage of the vehicle control group
- 16:0 SM level (P053 100 nM): 96.6683 percentage of the vehicle control group and 97.496 percentage of the vehicle control group and 96.0726 percentage of the vehicle control group and 98.7215 percentage of the vehicle control group and 93.8292 percentage of the vehicle control group and 95.9275 percentage of the vehicle control group and 94.8581 percentage of the vehicle control group and 102.543 percentage of the vehicle control group
- 16:1 SM level (P053 100 nM): 104.314 percentage of the vehicle control group and 87.7756 percentage of the vehicle control group and 92.2071 percentage of the vehicle control group and 111.506 percentage of the vehicle control group and 103.607 percentage of the vehicle control group and 109.147 percentage of the vehicle control group and 99.9145 percentage of the vehicle control group and 113.03 percentage of the vehicle control group
- 18:0 Cer level (P053 100 nM): 51.8361 percentage of the vehicle control group and 34.0436 percentage of the vehicle control group and 43.3209 percentage of the vehicle control group and 47.0876 percentage of the vehicle control group and 49.1716 percentage of the vehicle control group and 60.878 percentage of the vehicle control group and 53.1013 percentage of the vehicle control group and 34.6023 percentage of the vehicle control group
- 18:0 HexCer level (P053 100 nM): 26.076 percentage of the vehicle control group and 45.6733 percentage of the vehicle control group and 33.7976 percentage of the vehicle control group and 35.7543 percentage of the vehicle control group and 29.3831 percentage of the vehicle control group and 38.4787 percentage of the vehicle control group and 45.094 percentage of the vehicle control group and 48.7 percentage of the vehicle control group
- 18:0 SM level (P053 100 nM): 58.3863 percentage of the vehicle control group and 60.4391 percentage of the vehicle control group and 60.0968 percentage of the vehicle control group and 58.0444 percentage of the vehicle control group and 61.8417 percentage of the vehicle control group and 67.9073 percentage of the vehicle control group and 68.1366 percentage of the vehicle control group and 74.9383 percentage of the vehicle control group
- 18:1 SM level (P053 100 nM): 67.1121 percentage of the vehicle control group and 61.0781 percentage of the vehicle control group and 66.2487 percentage of the vehicle control group and 67.0185 percentage of the vehicle control group and 69.283 percentage of the vehicle control group and 68.5826 percentage of the vehicle control group and 71.1925 percentage of the vehicle control group
- 20:0 Cer level (P053 100 nM): 85.7665 percentage of the vehicle control group and 109.856 percentage of the vehicle control group and 101.721 percentage of the vehicle control group and 86.1177 percentage of the vehicle control group and 103.673 percentage of the vehicle control group and 96.5034 percentage of the vehicle control group and 78.6868 percentage of the vehicle control group
- 22:0 Cer level (P053 100 nM): 109.852 percentage of the vehicle control group and 94.2148 percentage of the vehicle control group and 84.7703 percentage of the vehicle control group and 98.1236 percentage of the vehicle control group and 119.57 percentage of the vehicle control group and 118.497 percentage of the vehicle control group and 136.979 percentage of the vehicle control group and 110.794 percentage of the vehicle control group
- 22:0 HexCer level (P053 100 nM): 96.8671 percentage of the vehicle control group and 87.3308 percentage of the vehicle control group and 81.4727 percentage of the vehicle control group and 94.5887 percentage of the vehicle control group and 107.975 percentage of the vehicle control group and 124.49 percentage of the vehicle control group and 104.798 percentage of the vehicle control group and 129.338 percentage of the vehicle control group
- 22:0 SM level (P053 100 nM): 88.1464 percentage of the vehicle control group and 112.339 percentage of the vehicle control group and 83.7907 percentage of the vehicle control group and 79.4494 percentage of the vehicle control group and 115.966 percentage of the vehicle control group and 112.687 percentage of the vehicle control group and 121.861 percentage of the vehicle control group and 131.998 percentage of the vehicle control group
- 22:1 SM level (P053 100 nM): 110.7 percentage of the vehicle control group and 102.614 percentage of the vehicle control group and 109.89 percentage of the vehicle control group and 108.27 percentage of the vehicle control group and 108.462 percentage of the vehicle control group and 113.237 percentage of the vehicle control group and 107.396 percentage of the vehicle control group and 108.45 percentage of the vehicle control group
- 24:0 HexCer level (P053 100 nM): 91.3427 percentage of the vehicle control group and 87.2698 percentage of the vehicle control group and 81.8027 percentage of the vehicle control group and 92.8624 percentage of the vehicle control group and 100.187 percentage of the vehicle control group and 107.186 percentage of the vehicle control group and 106.263 percentage of the vehicle control group and 116.702 percentage of the vehicle control group
- 24:0 SM level (P053 100 nM): 117 percentage of the vehicle control group and 90.9141 percentage of the vehicle control group and 93.8706 percentage of the vehicle control group and 115.93 percentage of the vehicle control group and 114.197 percentage of the vehicle control group and 134.57 percentage of the vehicle control group and 140.981 percentage of the vehicle control group
- 24:1 Cer level (P053 100 nM): 110.817 percentage of the vehicle control group and 85.3956 percentage of the vehicle control group and 97.052 percentage of the vehicle control group and 96.6841 percentage of the vehicle control group and 128.871 percentage of the vehicle control group and 121.829 percentage of the vehicle control group and 142.778 percentage of the vehicle control group and 120.748 percentage of the vehicle control group
- 24:1 HexCer level (P053 100 nM): 91.7407 percentage of the vehicle control group and 95.5309 percentage of the vehicle control group and 96.8003 percentage of the vehicle control group and 101.48 percentage of the vehicle control group and 104.186 percentage of the vehicle control group and 105.129 percentage of the vehicle control group and 100.754 percentage of the vehicle control group and 113.013 percentage of the vehicle control group
- 24:1 SM level (P053 100 nM): 111.218 percentage of the vehicle control group and 94.5875 percentage of the vehicle control group and 99.337 percentage of the vehicle control group and 100.942 percentage of the vehicle control group and 110.843 percentage of the vehicle control group and 105.998 percentage of the vehicle control group and 112.241 percentage of the vehicle control group and 112.423 percentage of the vehicle control group
- 14:0 SM level (P053 300 nM): 100.258 percentage of the vehicle control group and 95.2604 percentage of the vehicle control group and 95.8152 percentage of the vehicle control group and 99.1466 percentage of the vehicle control group and 109.96 percentage of the vehicle control group and 116.62 percentage of the vehicle control group and 129.695 percentage of the vehicle control group
- 16:0 Cer level (P053 300 nM): 91.1433 percentage of the vehicle control group and 77.1433 percentage of the vehicle control group and 90.5634 percentage of the vehicle control group and 83.6347 percentage of the vehicle control group and 92.4764 percentage of the vehicle control group and 98.9865 percentage of the vehicle control group and 90.2518 percentage of the vehicle control group
- 16:0 HexCer level (P053 300 nM): 76.4857 percentage of the vehicle control group and 73.433 percentage of the vehicle control group and 81.5302 percentage of the vehicle control group and 81.9705 percentage of the vehicle control group and 86.9585 percentage of the vehicle control group and 88.1949 percentage of the vehicle control group and 93.4284 percentage of the vehicle control group

Reference: paper PMC6104039 (Nature Communications, 2018)
